Source: patent US20050086710A1, “Method for generating recombinant human platelets for identifying therapeutic target proteins” (priority 2002, published 2005)

Columns and labels:
[1] = system: megakaryocyte-derived platelets; assay: FACS measurement of platelet surface markers after activation, megakaryocyte-derived platelets; format: cell-based, human; design: unit not given here; settings: TRAP 25 μM or ADP 5 or 20 μM, 10 min
Method: (§1) Then, the mixture was spun down for 5 min. at 1800 rpm (in a tabletop centrifuge). The supernatant was discarded, 300-400 μL staining-buffer were added. FACS measurements were done immediately. For the following studies, antibodies against the following antigens were used: [table] The antibodies were coupled to the following fluorescence systems, where appropriate (either directly or via secondary antibodies) and measured by fluorescence-activated cell sorting (FACS): [table] Platelets which co-expressed the transgene GFP were gated for this marker by studying FITC fluorescence, and the same measurements were then exclusively related to this gate.

[2] = system: freshly isolated human platelets; assay: FACS measurement of platelet surface markers after activation, freshly isolated platelets; format: cell-based; design: CD 41 (FACS) / CD 61 (FACS) / CD42b (FACS) / CD62P (FACS): unit not given here; settings: TRAP 25 μM or ADP 5 or 20 μM, 10 min
Method: as §1, with “Freshly drawn blood from human volunteers was transferred into a Falcon tube and spun down for 20 min. at 1080 rpm at 20° C. […] The mixture was spun down for 10 min. at 2100 rpm at 20° C. The pellet was resuspended in staining buffer (1×PBS (w/o CA^2+ Mg^+) with 0.1% sodium azide and 2% fetal bovine serum) in a volume of 40 μl. […] Then,” for “Then,”, “(FACS): […]” for “(FACS): [table]”

[3] = system: modified platelets expressing GFP; assay: FACS measurement of platelet surface markers after activation, modified platelets expressing GFP; format: cell-based, human; settings: gated for GFP, TRAP 25 μM or ADP 5 or 20 μM
Source text: (§2) Modified (E1/E3-deficient) flag-tagged adenoviruses for novel transgenes were generated that for expressing a transgene and green fluorescence protein (GFP) under control of two independent CMV promoters in a bi-cistronic system (He T C, Zhou S, da Costa L T, Yu J, Kinzler K W, Vogelstein B. A simplified system for generating modified adenoviruses. Proc Natl Acad Sci USA. 1998; 95:2509-14, purchased from Q Biogene, Heidelberg, Germany). As a control, Ad-GFP without further transgene was used. Large virus stocks were prepared and purified by centrifugation via cesium chloride density gradients. Adenoviral titers were determined using plaque titration and GFP expression titration in […] cells. • 1) Megakaryocytes were harvested at day 8-11 after isolation using a wide sterile single-use pipette and spun down in a 15 mL Falcon-tube at 1650 rpm for 8 min. • 2) The supernatant was discarded and the pellet resuspended in Opimem (at 4×10^5 cells/300 μL). • 3) Adenovirus was added to each well of a 24 well-plate for infection (multiplicity of infection (MOI) of 400 plaque forming units per cell). • 4) Cells were added and mixed by shaking, incubated for 30 min at 37° C. at 5% CO2, then • 5) spun down at 1000 rpm, 20° C. for 10 min.
• 1) Platelets were harvested by centrifugation at 1800 rpm for 1¼ min at 20° C.; the supernatant was diluted 1:1 with platelet wash buffer (1×PBS (w/o CA^2+ Mg^+) with 0.1% sodium azide (pH 7.2+/−0.2)). • 2) They were filtered through a 0.2 μm filter prior to use, stored at 4° C. and spun down at 1800 rpm for 5 min. • 3) The supernatant was discarded. ≈1 mL was left in the tube and washed again with staining buffer (1×PBS (w/o CA^2+Mg^+) with 0.1% sodium azide and 2% fetal bovine serum (FBS) and stored at 4° C. • 4) The supernatant was completely discarded. • 5) The pellet was resuspended in platelet-staining-buffer ([…]). • 6) 20 μL of the activators thrombin receptor activating peptide (TRAP; 25 μM), ADP (5 or 20 μM) or thrombin (2 U/ml) were added. 35 μL of the fibrinogen receptor binding peptide RGD or its negative control, RED, were added where indicated. • 7) The mixture was incubated for 10 min. at room temperature in the dark. • 8) Antibodys were added directly (in a volume of 7 μL each except for LIBS-FITC at 3.5 μL) and incubated for 20-30 min. at room temperature in the dark. • 9) 500-600 μL platelet staining buffer was added. Then, the mixture was spun down for 5 min. at 1800 rpm (in a tabletop centrifuge). The supernatant was discarded, 300-400 μL staining-buffer were added. FACS measurements were done immediately.
For the following studies, antibodies against the following antigens were used:
The antibodies were coupled to the following fluorescence systems, where appropriate (either directly or via secondary antibodies) and measured by fluorescence-activated cell sorting (FACS):
Platelets which co-expressed the transgene GFP were gated for this marker by studying FITC fluorescence, and the same measurements were then exclusively related to this gate.

[4] = system: stem cell-derived platelets; assay: ELISA, thrombin dependent release of β-thromboglobulin, stem cell-derived platelets; format: cell-based
Method: (§3) ELISA Assays for β-thromboglobulin (Asserachrom β-TG, Roche Diagnostics, Mannheim, Germany) and platelet-derived growth factor (PDGF; PDGF-AB Immunoassay, Qiagen, Hilden, Germany) were performed according to the manufacturers' instructions. By using these assays, the thrombin dependent release of both mediators from platelets was assessed.

[5] = system: stem cell-derived platelets after infection with Ad-GFP; assay: ELISA, release of β-thromboglobulin, platelets after infection with Ad-GFP; format: cell-based; settings: thrombin vs basal
Source text: as §2, with “10 min. […]” for “10 min.”

[6] = system: freshly isolated platelets; assay: ELISA, release of β-thromboglobulin, freshly isolated platelets; format: cell-based, human; settings: thrombin, amount not stated (basal 59±6)
Method: (§4) Freshly drawn blood from human volunteers was transferred into a Falcon tube and spun down for 20 min. at 1080 rpm at 20° C. The supernatant yielded the PRP (platelet-rich-plasma) and was transferred to a new tube and diluted 1:4 with wash-buffer (1×PBS (w/o CA^2+ Mg^+) with 0.1% sodium azide, pH 7.2+/−0.2, filtered through a 0.2 μm filter prior to use and stored at 4° C.). The mixture was spun down for 10 min. at 2100 rpm at 20° C. The pellet was resuspended in staining buffer (1×PBS (w/o CA^2+ Mg^+) with 0.1% sodium azide and 2% fetal bovine serum) in a volume of 40 μl.
as §3

[7] = system: stem cell-derived platelets; assay: ELISA, thrombin dependent release of PDGF, stem cell-derived platelets; format: cell-based
Method: as §3

[8] = system: stem cell-derived platelets after infection with Ad-GFP; assay: ELISA, release of PDGF, platelets after infection with Ad-GFP; format: cell-based; settings: thrombin vs basal
Source text: as §2, with “10 min. […]” for “10 min.”

[9] = system: freshly isolated platelets; assay: ELISA, release of PDGF, freshly isolated platelets; format: cell-based, human
Method: as §4, §3

Row | Compound | CD 41 (FACS) [1] | CD42b (FACS) [1] | CD 61 (FACS) [1] | CD62P (FACS) [1] | CD 41 (FACS) [2] | CD42b (FACS) [2] | CD 61 (FACS) [2] | CD62P (FACS) [2] | PAC-1 (FACS) [2] | CD 41 (FACS) [3] | CD42b (FACS) [3] | CD 61 (FACS) [3] | CD62P (FACS) [3] | PAC-1 (FACS) [3] | further results
1 | Nc1ncnc2c1ncn2[C@@H]1O[C@H](COP(=O)(O)OP(=O)(O)O)[C@@H](O)[C@H]1O [ADP] | 258 ± 24 | 46 ± 25 | 76 ± 9.5 | 121 ± 61 | 92 ± 37 | 58 ± 15 | 16 ± 6 | 75 ± 18 | 90 ± 26 | 216 ± 18 | 95 ± 63 | 333 ± 78 | 314 ± 153 | 198 ± 10 | –
2 | thrombin | – | – | – | – | – | – | – | – | – | – | – | – | – | – | Release of β-thromboglobulin ([4]; 0.2 U thrombin (basal 52±19)): 219±11 U/ml; Release of β-thromboglobulin ([4]; 2 U thrombin (basal 52±19)): 250±92 U/ml; increase in βTG release [5]: four-fold; Release of β-thromboglobulin [6]: 115±10 U/ml; release of PDGF ([7]; 0.2 U thrombin (basal 280±95)): 590 ± 22 pg/mL; release of PDGF ([7]; 2 U thrombin (basal 280±95)): 610 pg/mL; increase of PDGF release [8]: 123±7%; release of PDGF ([9]; 0.2 U thrombin (basal 214±11)): 566 ± 10 pg/mL; release of PDGF ([9]; 1 U thrombin (basal 214±11)): 664 ± 12 pg/mL
3 | thrombin receptor activating peptide [TRAP] | 248 ± 23 | 75 ± 41 | 75 ± 14 | 138 ± 69 | 99 ± 25 | 40 ± 2 | 19 ± 4.8 | 162 ± 50 | 122 ± 34 | 213 ± 34 | 81 ± 29 | 325 ± 73 | 299 ± 146 | 178 ± 41 | –
